The numbers were not newly measured in patent publication US7276608B2, “Tetrahydroquinoline derivatives as cannabinoid receptor modulators” (Bristol-Myers Squibb Company, priority 2003, dated 2007), which cites them from elsewhere.

For data set [1] the following is noted: chronic administration for two weeks.
For data set [2] the following is noted: 16 week trial period, Phase IIb.

`Cc1c(C(=O)NN2CCCCC2)nn(-c2ccc(Cl)cc2Cl)c1-c1ccc(I)cc1` [AM-251]: the body weight entry in data set [1] is reported as “substantial body weight reduction”.
In the case of `Cc1c(C(=O)NN2CCCCC2)nn(-c2ccc(Cl)cc2Cl)c1-c1ccc(Cl)cc1` [SR-141716], the “body weight in human subjects” value in data set [2] is on record as “dose-dependently reduced body weight”.
